What was measured:
[1] = Ratio of IC50 for HEK293 cells to IC50 for human MCF7 cells; assay type: toxicity; details: HEK293 cells versus MCF7 cells, read-out: Ratio IC50
[2] = test system: HepG2; experiment: cells; details: Homo sapiens, HepG2, 48 h
Description: Cytotoxicity against human HepG2 cells after 48 hrs by MTT assay

[3] = Ratio of IC50 for HEK293 cells to IC50 for human HepG2 cells; assay type: toxicity; details: HEK293 cells versus HepG2 cells, read-out: Ratio IC50
[4] = test system: HEK293; experiment: Cytotoxicity against human HEK293 cells after 48 hrs by MTT assay; assay type: cell-based; details: HEK293, 48 h
[5] = molecular target: T1, Carbonic anhydrase 9 (Homo sapiens, UniProt Q16790); experiment: Inhibition of human carbonic anhydrase 9 using 4-NPA as substrate after 3 mins by spectrophotometric analysis
[6] = test system: MCF7; experiment: Cytotoxicity against human MCF7 cells after 48 hrs by MTT assay; assay type: functional, cell-based; details: MCF7, 48 h
[7] = molecular target: Carbonic anhydrase 2 (Homo sapiens, UniProt P00918); experiment: Inhibition of human carbonic anhydrase 2 using 4-NPA as substrate after 3 mins by spectrophotometric analysis
[8] = molecular target: T1, Carbonic anhydrase 9; experiment: Binding affinity to human carbonic anhydrase 9 by spectrofluorimetric analysis

Row | SMILES | IC50 [2] [µM] | IC50 [5] [µM] | IC50 [7] [µM] | IC50 [8] [µM] | selectivity ratio [1] | selectivity ratio [3] | IC50 [4] [µM] | IC50 [6] [µM]
1 | S=C(NCc1ccncc1)Nc1ccccc1 | 19.3 | 17.9 | – | – | 1.2 | 2.4 | 47.2 | 37.3
2 | CC(C)c1ccc(/C=C2/S/C(=N/c3ccccc3)N(Cc3ccncc3)C2=O)cc1 | 32.3 | 63.1 | – | – | 2.5 | 4.2 | 137 | 53.3
3 | COc1cc(/C=C2/S/C(=N/c3ccccc3)N(Cc3ccncc3)C2=O)ccc1O | 28.6 | 60.9 | – | – | 2.4 | 2.3 | 67.4 | 28
4 | COc1ccc(OC)c(/C=C2/S/C(=N/c3ccccc3)N(Cc3ccncc3)C2=O)c1 | 35.8 | 16.7 | – | – | 2.1 | 2.2 | 80.1 | 37
5 | CN(C)c1ccc(/C=C2/S/C(=N/c3ccccc3)N(Cc3ccncc3)C2=O)cc1 | 52.6 | 32.9 | – | – | 1.6 | 2.3 | 122 | 76.3
6 | COc1ccc(/C=C2/S/C(=N/c3ccccc3)N(Cc3ccncc3)C2=O)cc1OC | 28.9 | 20.9 | – | – | 2.1 | 5.9 | 171 | 80.7
7 | O=C1/C(=C\c2ccc3c(c2)OCO3)S/C(=N/c2ccccc2)N1Cc1ccncc1 | 24.4 | 58.4 | – | – | 1.8 | 2.6 | 64.8 | 35.2
8 | O=C1CS/C(=N/c2ccccc2)N1Cc1ccncc1 | 26 | 26.1 | – | – | 1.5 | 3.8 | 99.5 | 65.8
9 | O=C1/C(=C\c2ccc(O)c(O)c2)S/C(=N/c2ccccc2)N1Cc1ccncc1 | 16.2 | 1.84 | 27.2 | 2.32 | 18.5 | 14.2 | 230 | 12.4
10 | CCOc1cc(/C=C2/S/C(=N/c3ccccc3)N(Cc3ccncc3)C2=O)ccc1O | 20.4 | 38.4 | – | – | 2.3 | 2.2 | 46.5 | 20.1
11 | O=C1/C(=C\c2ccc([N+](=O)[O-])cc2)S/C(=N/c2ccccc2)N1Cc1ccncc1 | 18.9 | 1.61 | 14.4 | 11.2 | 19.2 | 13.2 | 250 | 13
12 | COc1cccc2c1C(=O)c1c(O)c3c(c(O)c1C2=O)C[C@@](O)(C(=O)CO)C[C@@H]3O[C@H]1C[C@H](N)[C@H](O)[C@H](C)O1 [DOXORUBICIN] | – | – | – | – | – | – | 148 | –

More lines, main results first:

Row | IC50 [2] [µM] | IC50 [5] [µM] | IC50 [7] [µM] | IC50 [8] [µM] | SMILES | selectivity ratio [1] | selectivity ratio [3] | IC50 [4] [µM] | IC50 [6] [µM]
13 | 25.2 | 50.9 | – | – | O=C1/C(=C\c2ccccc2)S/C(=N/c2ccccc2)N1Cc1ccncc1 | 2.4 | 2.5 | 64.7 | 26.4
14 | 23.1 | 10 | – | – | Cc1ccc(/C=C2/S/C(=N/c3ccccc3)N(Cc3ccncc3)C2=O)s1 | 5.1 | 6.3 | 146 | 28.7
15 | 28.9 | 43.5 | – | – | O=C1/C(=C\c2cccc(Cl)c2)S/C(=N/c2ccccc2)N1Cc1ccncc1 | 2.4 | 2.4 | 71.8 | 29.8
16 | 28.8 | 40.2 | – | – | O=C1/C(=C\c2ccc(Cl)cc2)S/C(=N/c2ccccc2)N1Cc1ccncc1 | 1.1 | 1.4 | 42.3 | 54.9
17 | 11.8 | 6.72 | – | – | O=C1/C(=C\c2ccc(O)cc2)S/C(=N/c2ccccc2)N1Cc1ccncc1 | 7.5 | 12 | 142 | 18.9
18 | 17.6 | 10.8 | – | – | O=C1/C(=C\c2cccc(O)c2)S/C(=N/c2ccccc2)N1Cc1ccncc1 | 3.4 | 8.5 | 150 | 43.6
19 | 19.1 | 40.4 | – | – | COc1ccc(/C=C2/S/C(=N/c3ccccc3)N(Cc3ccncc3)C2=O)cc1 | 1.5 | 2.5 | 47.9 | 31.5
20 | 31 | 6.64 | – | – | O=C1/C(=C\c2ccccn2)S/C(=N/c2ccccc2)N1Cc1ccncc1 | 7.6 | 5.2 | 161 | 21.1
21 | 19.7 | 57.3 | – | – | Cc1ccc(/C=C2/S/C(=N/c3ccccc3)N(Cc3ccncc3)C2=O)cc1 | 1.3 | 2.5 | 49.5 | 36.9
